Key:
rape = experiment: Test B pre/postemergence rape; type: in vivo, Brassica napus
In short: (§1)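 Herbicidal effect was estimated by eye on a ten-point control scale after plants spent twelve to sixteen days in a greenhouse following soil or foliar treatment. Foliar sprays targeted plants at one to four leaves; all doses were formulated in a non-phytotoxic solvent with surfactant.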

surinam grass = experiment: Test B pre/postemergence surinam grass; type: in vivo, Brachiaria decumbens
In short: as §1

corn = experiment: Test B pre/postemergence corn; type: in vivo, Zea mays
In short: as §1

bedstraw = experiment: Test B pre/postemergence bedstraw; type: in vivo, Galium aparine; conditions: Preemergence
In short: as §1

purple nutsedge = experiment: Test B pre/postemergence purple nutsedge; type: in vivo, Cyperus rotundus
In short: as §1

sugar beet = experiment: Test B pre/postemergence sugar beet; type: in vivo, Beta vulgaris
In short: as §1

giant foxtail = experiment: Test B pre/postemergence giant foxtail; type: in vivo, Setaria faberii
In short: as §1

soybean = experiment: Test B pre/postemergence soybean; type: in vivo, Glycine max
In short: as §1

velvetleaf = experiment: Test B pre/postemergence velvetleaf; type: in vivo, Abutilon theophrasti
In short: as §1

crabgrass = experiment: Test B pre/postemergence crabgrass; type: in vivo, Digitaria sanguinalis
In short: as §1

pigweed = experiment: Test B pre/postemergence pigweed; type: in vivo, Amaranthus retroflexus
In short: as §1

wheat = experiment: Test B pre/postemergence wheat; type: in vivo, Triticum aestivum
In short: as §1

blackgrass = experiment: Test B pre/postemergence blackgrass; type: in vivo, Alopecurus myosuroides
In short: as §1

morningglory = experiment: Test B pre/postemergence morningglory; type: in vivo, Ipomoea hederacea
In short: as §1

cocklebur = experiment: Test B pre/postemergence cocklebur; type: in vivo, Xanthium strumarium
In short: as §1

wild oat = experiment: Test B pre/postemergence wild oat; type: in vivo, Avena fatua
In short: as §1

[1] = Postemergence, Rate 62 g/ha, scale 0 to 10, 0 is no effect, 10 is complete control
[2] = Postemergence, Rate 125 g/ha, scale of 0 to 10 where 0 is no effect and 10 is complete control
[3] = Preemergence, Rate 125 g/ha, scale of 0 to 10 where 0 is no effect and 10 is complete control
[4] = Preemergence, Rate 250 g/ha, scale 0 (no effect) to 10 (complete control)
[5] = Rate 62 g/ha, Preemergence, scale 0 to 10
[6] = Rate 250 g/ha, Postemergence, scale 0 to 10, 0 is no effect, 10 is complete control
[7] = Rate 500 g/ha, Postemergence, scale 0 to 10, 0 is no effect, 10 is complete control
[8] = Rate 500 g/ha, Preemergence, scale 0 to 10 (0 no effect, 10 complete control)

C#CCCn1c(=O)on(C(=O)N(c2ccc(F)cc2F)C(C)C)c1=O [Compound 744]
8: Rape plant response rating (rape; [7]) | Plant response rating, B. signalgrass (surinam grass; [3]) | Bedstraw plant response rating (bedstraw; Rate 500 g/ha, scale 0 to 10 (0 no effect, 10 complete control)) | Giant foxtail plant response rating (giant foxtail; [2]) | Giant foxtail plant response rating (giant foxtail; [6]) | Giant foxtail plant response rating (giant foxtail; [7]) | Crabgrass plant response rating (crabgrass; [6]) | Plant response rating, Redroot pigweed (pigweed; [3]) | Redroot pigweed plant response rating (pigweed; [7]) | Plant response rating, Wild oats (wild oat; [3])
3: Rape plant response rating (rape; [6]) | Corn plant response rating (corn; [6]) | Nutsedge plant response rating (purple nutsedge; [6]) | Soybean plant response rating (soybean; [2]) | Plant response rating, Crabgrass (crabgrass; [1]) | Wheat plant response rating (wheat; [4]) | Wild oats plant response rating (wild oat; [5])
4: Rape plant response rating (rape; [5]) | Soybean plant response rating (soybean; [6]) | Crabgrass plant response rating (crabgrass; [2]) | Redroot pigweed plant response rating (pigweed; [5]) | Morningglory plant response rating (morningglory; [7])
0: Plant response rating, Rape (rape; [1]) | Plant response rating, B. signalgrass (surinam grass; [1]) | Plant response rating, Corn (corn; [1]) | Corn plant response rating (corn; [2]) | Plant response rating, Corn (corn; [3]) | Corn plant response rating (corn; [5]) | Plant response rating, Bedstraw (bedstraw; Rate 125 g/ha, scale of 0 to 10 where 0 is no effect and 10 is complete control) | Bedstraw plant response rating (bedstraw; Rate 250 g/ha, scale 0 (no effect) to 10 (complete control)) | Bedstraw plant response rating (bedstraw; Rate 62 g/ha, scale 0 to 10) | Plant response rating, Nutsedge (purple nutsedge; [1]) | Plant response rating, Nutsedge (purple nutsedge; [3]) | Plant response rating, Sugarbeets (sugar beet; [1]) | Sugarbeets plant response rating (sugar beet; [2]) | Sugarbeets plant response rating (sugar beet; [5]) | Sugarbeets plant response rating (sugar beet; [6]) | Plant response rating, Soybean (soybean; [3]) | Soybean plant response rating (soybean; [4]) | Soybean plant response rating (soybean; [5]) | Soybean plant response rating (soybean; [8]) | Plant response rating, Velvetleaf (velvetleaf; [1]) | Velvetleaf plant response rating (velvetleaf; [2]) | Plant response rating, Velvetleaf (velvetleaf; [3]) | Velvetleaf plant response rating (velvetleaf; [4]) | Velvetleaf plant response rating (velvetleaf; [5]) | Velvetleaf plant response rating (velvetleaf; [6]) | Plant response rating, Redroot pigweed (pigweed; [1]) | Redroot pigweed plant response rating (pigweed; [2]) | Redroot pigweed plant response rating (pigweed; [6]) | Plant response rating, Wheat (wheat; [1]) | Wheat plant response rating (wheat; [2]) | Plant response rating, Wheat (wheat; [3]) | Wheat plant response rating (wheat; [5]) | Plant response rating, Morningglory (morningglory; [3]) | Morningglory plant response rating (morningglory; [4]) | Morningglory plant response rating (morningglory; [5]) | Morningglory plant response rating (morningglory; [8]) | Plant response rating, Cocklebur (cocklebur; [1]) | Cocklebur plant response rating (cocklebur; [2]) | Plant response rating, Cocklebur (cocklebur; [3]) | Cocklebur plant response rating (cocklebur; [4]) | Cocklebur plant response rating (cocklebur; [5]) | Cocklebur plant response rating (cocklebur; [6]) | Cocklebur plant response rating (cocklebur; [7]) | Cocklebur plant response rating (cocklebur; [8]) | Plant response rating, Wild oats (wild oat; [1]) | Wild oats plant response rating (wild oat; [2]) | Wild oats plant response rating (wild oat; [6])
7: Corn plant response rating (corn; [8]) | Nutsedge plant response rating (purple nutsedge; [8]) | Sugarbeets plant response rating (sugar beet; [4]) | Sugarbeets plant response rating (sugar beet; [8]) | Wheat plant response rating (wheat; [7])
2: Rape plant response rating (rape; [2]) | B. signalgrass plant response rating (surinam grass; [2]) | Plant response rating, Sugarbeets (sugar beet; [3]) | Plant response rating, Soybean (soybean; [1]) | Velvetleaf plant response rating (velvetleaf; [7]) | Velvetleaf plant response rating (velvetleaf; [8]) | Plant response rating, Morningglory (morningglory; [1]) | Morningglory plant response rating (morningglory; [2]) | Morningglory plant response rating (morningglory; [6]) | Wild oats plant response rating (wild oat; [7])
9: Rape plant response rating (rape; [8]) | B. signalgrass plant response rating (surinam grass; [4]) | B. signalgrass plant response rating (surinam grass; [8]) | Plant response rating, Giant foxtail (giant foxtail; [3]) | Giant foxtail plant response rating (giant foxtail; [4]) | Giant foxtail plant response rating (giant foxtail; [5]) | Plant response rating, Crabgrass (crabgrass; [3]) | Crabgrass plant response rating (crabgrass; [4]) | Crabgrass plant response rating (crabgrass; [5]) | Crabgrass plant response rating (crabgrass; [7]) | Redroot pigweed plant response rating (pigweed; [4]) | Redroot pigweed plant response rating (pigweed; [8]) | Plant response rating, Blackgrass (blackgrass; [3]) | Blackgrass plant response rating (blackgrass; [4]) | Blackgrass plant response rating (blackgrass; [8]) | Wild oats plant response rating (wild oat; [4]) | Wild oats plant response rating (wild oat; [8])
10: Giant foxtail plant response rating (giant foxtail; [8]) | Crabgrass plant response rating (crabgrass; [8])
6: Plant response rating, Rape (rape; [3]) | Rape plant response rating (rape; [4]) | B. signalgrass plant response rating (surinam grass; [7]) | Nutsedge plant response rating (purple nutsedge; [7]) | Plant response rating, Giant foxtail (giant foxtail; [1]) | Blackgrass plant response rating (blackgrass; [5])
5: B. signalgrass plant response rating (surinam grass; Preemergence, Rate 62 g/ha, scale of 0 to 10 where 0 is no effect and 10 is complete control) | B. signalgrass plant response rating (surinam grass; [6]) | Corn plant response rating (corn; [4]) | Corn plant response rating (corn; [7]) | Nutsedge plant response rating (purple nutsedge; [4]) | Sugarbeets plant response rating (sugar beet; [7]) | Soybean plant response rating (soybean; [7]) | Wheat plant response rating (wheat; [6]) | Wheat plant response rating (wheat; [8]) | Plant response rating, Blackgrass (blackgrass; [1]) | Blackgrass plant response rating (blackgrass; [2]) | Blackgrass plant response rating (blackgrass; [6]) | Blackgrass plant response rating (blackgrass; [7])

Reference: patent publication US6737383B1, “Herbicidal oxadiazolidines” (priority 1999, dated 2004)
